Data on 6 compounds can be found in patent publication US11092596B2, “Material and method to screen proteasome stimulators” (Purdue Research Foundation, priority 2017, dated 2021).

pEC50: −log10 of the molar value. Counter-ions that a name gives are not always drawn.

Data set [1] deals with T1, chymotrypsin-like FRET reporter (CT-L FRET), Lys(Y1)-Met-Ser-Gly-Phe-Ala-Ala-Thr-Ala-Glu(Y2)-Gly.
T1 sequence: KMSGFAATAEG

Data set [2] deals with T2, Suc-LLVY-AMC.
T2 sequence: LLVY

In data set [3] the target is 20S CP (Homo sapiens, UniProt P28074). As to conditions: in cellulo, Suc-LLVY-AMC reporter, previously reported; read-out: EC50 as 20S CP stimulator; cited from earlier work.
Data set [4] addresses T3, chymotrypsin-like activity of the 20S CP (Homo sapiens, UniProt P28074).
T3 construct: 5 μL purified 20S proteasome (90 nM in Tris-HCl) was added to the control and test wells
Put plainly: Kinetic assay, CT-L FRET reporter hydrolysis by purified 20S CP. Type of data set: biochemical. As to conditions: for increase in the rate of hydrolysis (CT-L FRET reporter): 9 nM 20S CP, vs basal. The method, then:
(§1) Plate preparation for the kinetic assay was performed similarly for all assays. All 96-well plates contained the following in triplicate: reporter background, containing reporter only, and control wells, containing reporter and purified 20S CP. It was determined that each well will contain a total volume of 50 μL. To each well was added 40 μL of the coumarin or FRET reporters (in Tris-HCl, 50 mM, pH 7.7). To the reporter background wells was added 7.5 μL Tris-HCl and 2.5 μL of the solvent in which the compound of interest was dissolved or diluted. Similarly, to the control wells was added 2.5 μL Tris-HCl and 2.5 μL of the solvent in which the compound of interest was dissolved or diluted. To the test wells was added 2.5 μL Tris-HCl and 2.5 μL of the compound of interest at a predetermined concentration. Immediately prior to running the assay on the Synergy 4 Plate Reader, 5 μL purified 20S proteasome (90 nM in Tris-HCl) was added to the control and test wells.
The Synergy 4 Plate Reader was set to heat the plate at 37° C. and read fluorescence every 2 min over a 40 min period. The excitation and emission wavelengths were set according to the reporter. For the FRET reporter, the excitation and emission wavelengths were set to 335 nm and 493 nm, respectively, corresponding to the excitation and emission wavelengths of the Edans fluorophore. For the coumarin reporter, the excitation and emission wavelengths were set to 380 nm and 460 nm, respectively.
(§2) AM-404 was used as a positive control compound to test the dose-response screening capabilities of the CT-L FRET reporter. The following concentrations of AM-404 were tested in triplicate: 50, 25, and 12.5 μM. To each well was added 40 μL 20 μM CT-L FRET (in Tris-HCl, 50 mM, pH 7.7). To the reporter background wells was added 5 μL Tris-HCl and 5 μL 1:1 Tris-HCl:DMSO. Similarly, to the control wells was added 5 μL 1:1 Tris-HCl:DMSO. To the 50 μM AM-404 test wells was added 2.5 μL Tris-HCl and 2.5 μL 1000 μM AM-404 in DMSO. To the 25 μM AM-404 test wells was added 2.5 μL Tris-HCl and 2.5 μL 500 μM AM-404 in DMSO. To the 12.5 μM AM-404 test wells was added 2.5 μL Tris-HCl and 2.5 μL 250 μM AM-404 in DMSO. Immediately prior to running the assay on the Synergy 4 Plate Reader, 5 μL purified 20S proteasome (90 nM in Tris-HCl) was added to the control and test wells. The assay was performed using the Synergy 4 plate reader as described for the general screening kinetic assay procedure.
as §2, with “Fenofibrate was” for “AM-404 was”, “a negative” for “a positive”, “of fenofibrate” for “of AM-404”, “μM fenofibrate” for “μM AM-404”, “procedure. […]” for “procedure.”

Data set [5] deals with 26S proteasome. As to conditions: at concentrations as low as 5 μM; cited from earlier work.
For data set [6], the target named is T3, chymotrypsin-like activity of the 20S CP. Briefly: Kinetic assay, Suc-LLVY-AMC reporter hydrolysis by purified 20S CP. It counts as biochemical. As to the method:
as §1
(§3) The Synergy 4 Plate Reader was set to heat the plate at 37° C. and read fluorescence every 2 min over a 40 min period. The excitation and emission wavelengths were set according to the reporter. For the FRET reporter, the excitation and emission wavelengths were set to 335 nm and 493 nm, respectively, corresponding to the excitation and emission wavelengths of the Edans fluorophore. […]
Sodium dodecyl sulfate (SDS) was used to test the effect stimulating the 20S proteasome has on the hydrolysis of the FRET reporters. The appropriate concentration of SDS to use in the kinetic assay was determined using the small chymotrypsin-like activity reporter, Suc-LLVY-AMC (SEQ ID NO: 4). […] In triplicate, the following final concentrations of SDS were analyzed for the effect each has on the activity of the 20S proteasome: 4000 μM, 2000 μM, 1000 μM, 500 μM, 250 μM, 125 μM, and 0 μM, the basal activity of the 20S proteasome. […] Immediately prior to reading the plate with the Synergy 4 plate reader, 5 μL purified 20S proteasome (90 nM in Tris-HCl) was added to the wells at a final concentration of 9 nM per well.
The Synergy 4 Plate Reader was set to heat the plate at 37° C. and read fluorescence every 2 min over a 1 hr period. […] The resulting data in relative fluorescence units (RFU) was analyzed using GraphPad Prism and was plotted against time in minutes. […] Based on the resulting curve and the hyperbolic curve obtained using 1000 μM SDS (FIG. 11b), it was determined that 500 μM SDS was the appropriate concentration to use to test the effect stimulating the 20S proteasome has on the hydrolysis of the FRET reporters.
Stimulation of the 20S proteasome with SDS was determined using both the coumarin and FRET reporters for the chymotrypsin-like and trypsin-like activities of the 20S CP. […]

Data set [7] has as its target T4, trypsin-like activity of the 20S CP (Homo sapiens, UniProt Q99436). Put plainly: Kinetic assay, Bz-VGR-AMC reporter hydrolysis by purified 20S CP. It counts as biochemical. As to conditions: 500 μM SDS. The method, then:
as §1, with “To the test wells was added 2.5 μL Tris-HCl and 2.5 μL of the compound of interest at a predetermined concentration.” left out
The Synergy 4 Plate Reader was set to heat the plate at 37° C. and read fluorescence every 2 min over a 40 min period. […]
Stimulation of the 20S proteasome with SDS was determined using both the coumarin and FRET reporters for the chymotrypsin-like and trypsin-like activities of the 20S CP. […] Immediately prior to running the assay on the Synergy 4 Plate Reader, 5 μL purified 20S proteasome (90 nM in Tris-HCl) was added to the control and test wells. […]

Data set [8] addresses T4, trypsin-like activity of the 20S CP. Put plainly: Kinetic assay, T-L FRET reporter hydrolysis by purified 20S CP. It counts as biochemical. As to conditions: 500 μM SDS. The method, then: as §1, §3
Stimulation of the 20S proteasome with SDS was determined using both the coumarin and FRET reporters for the chymotrypsin-like and trypsin-like activities of the 20S CP. […] Immediately prior to running the assay on the Synergy 4 Plate Reader, 5 μL purified 20S proteasome (90 nM in Tris-HCl) was added to the control and test wells. The assay was performed using the Synergy 4 plate reader as described for the general screening kinetic assay procedure. […]
To each well was added 40 μL 20 μM T-L FRET reporter (in Tris-HCl, 50 mM, pH 7.7). […] Immediately prior to running the assay on the Synergy 4 Plate Reader, 5 μL purified 20S proteasome (90 nM in Tris-HCl) was added to the control and test wells.

As to “20S core particle (20S CP) of the proteasome”, in data set [1], the Mean Signal (Rate), Basal (background) activity of the 20S CP was 5.3 and the “rate of hydrolysis (average basal level, no stimulator)” value was 2.9 ΔRFU/min. For the same compound, the “rate of hydrolysis (average basal level, no stimulator)” value in data set [2] is 60 ΔRFU/min.
As for `CCCCC/C=C\C/C=C\C/C=C\C/C=C\CCCC(=O)Nc1ccc(O)cc1` [AM-404], in data set [3], the pEC50 (as a rule, the negative decadic logarithm of the EC50, by convention in mol/L) was about 4.49. In addition, the “increase in the rate of hydrolysis (CT-L FRET reporter)” value in data set [4] (12.5 μM compound (lowest concentration tested)) is 4 fold; in data set [4] (25.0 μM compound), 5 fold; in data set [4] (50.0 μM compound), 7 fold. The “Mean Signal (Rate)” value in data set [4] (CT-L FRET reporter, 20S CP, basal 5.300) amounted to 40.46. In data set [4] (CT-L FRET reporter, dose response curve), the “dose dependence of 20S CP stimulation” value is “dose-dependent”.
In the case of `O=C(O)c1cc(O)c2c(c1)[C@@H]([C@H]1c3cc(C(=O)O)cc(O)c3C(=O)c3c(O[C@@H]4O[C@H](CO)[C@@H](O)[C@H](O)[C@H]4O)cccc31)c1cccc(O[C@@H]3O[C@H](CO)[C@@H](O)[C@H](O)[C@H]3O)c1C2=O` [Compound 4, Sennoside B], in data set [4] (25 μM, newly purchased compound, CT-L FRET reporter), the “validation of primary hits in triplicate” value is “did not perform as it had in the initial screen”.
With `CN(C)C(=O)C(CCN1CCC(O)(c2ccc(Cl)cc2)CC1)(c1ccccc1)c1ccccc1` [Loperamide HCl], the “stimulation of the 26S proteasome” value in data set [5] is recorded as “stimulate the 26S proteasome”.
Regarding `CCCCCCCCCCCCOS(=O)(=O)[O-].[Na+]` [SDS, sodium dodecyl sulfate], the “increase in the rate, Suc-LLVY-AMC reporter” value in data set [6] (500 μM SDS vs basal) is reported as 2.4 fold. In addition, the “average rate of hydrolysis, Suc-LLVY-AMC reporter” value in data set [6] (500 μM SDS, basal 60 ΔRFU/min) is given as 145 ΔRFU/min. Moreover, the “increase in the rate of hydrolysis of Bz-VGR-AMC compared to basal activity” value in data set [7] is recorded as 2 fold. Moreover, the “increase in the rate, CT-L FRET reporter” value in data set [4] (500 μM SDS vs basal) was 8.3 fold. For the same compound, the “average rate of hydrolysis, CT-L FRET reporter” value in data set [4] (500 μM SDS, basal 2.9 ΔRFU/min) is 24 ΔRFU/min. In data set [8], the “increase in the rate of hydrolysis of T-L FRET reporter compared to basal activity” value is listed as 5 fold.
With `CC(C)C[C@H](NC(=O)[C@H](Cc1ccccc1)NC(=O)c1cnccn1)B(O)O` [bortezomib], the “decrease in the rate of hydrolysis of the CT-L FRET reporter” value in data set [4] (2 μM bortezomib) was 40%.
